Common to all, as to assay type: cell-based
One test has as its system Calu-1 cells. Briefly: Anti-proliferation (viability) of NSCLC Calu-1 cells, 3 days (Table 7, FIG. 2B). To be noted: Homo sapiens, 72 h; Calu-1 cells, 3 days, 10-point serial dilution; read-out: GI IC50 in Calu-1. In outline: (§1)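 Cells were exposed to heterobifunctional compounds across a 10-point serial dilution, for 3 days with Calu-1 and 6 days with T47D. A negative control was included that keeps the DDB1 ligand and linker but carries a modified warhead that impairs CDK4 binding.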

For another test, the system named is T47D cells. Kind of test: Anti-proliferation (viability) of ER+ breast cancer T47D cells, 6 days (Table 7, FIG. 2B). To be noted: Homo sapiens, 144 h; T47D cells, 6 days, 10-point serial dilution; read-out: GI IC50 in T47D. In outline:
as §1

In a further test the test system is MCF7 cells. Briefly: Anti-proliferation (viability) of MCF7 cells (Table 7, FIG. 2B). The conditions noted are these: Homo sapiens, MCF7, MCF7 cells, 3-6 days, 10-point serial dilution; read-out: GI IC50 in MCF-7.
The next test deals with CDK4 (Homo sapiens, UniProt P11802+Q16531). Briefly: CDK4 percentage degradation in Calu-1 cells (Table 6). More on the design: Cells that express cyclin D1-3 and CDK4/6 proteins were treated with heterobifunctional compounds; endogenous in cells; host or cells: Calu-1. The conditions noted are these: 16 hours; for inhibition at 0.04 µM: 40 nM; for inhibition at 0.2 µM: 200 nM. The essentials:
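Calu-1 cells exposed to heterobifunctional compounds at 40 nM or 200 nM for 16 h. Cyclin D1 and CDK4 levels measured by Western blot of RIPA lysates (BCA-normalised loading), bands quantified by densitometry and expressed as percentage degradation.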

A value given as a limit tells only on which side of the number the result lay.

Chain of CDK4 (P11802 2-303 limits assumed): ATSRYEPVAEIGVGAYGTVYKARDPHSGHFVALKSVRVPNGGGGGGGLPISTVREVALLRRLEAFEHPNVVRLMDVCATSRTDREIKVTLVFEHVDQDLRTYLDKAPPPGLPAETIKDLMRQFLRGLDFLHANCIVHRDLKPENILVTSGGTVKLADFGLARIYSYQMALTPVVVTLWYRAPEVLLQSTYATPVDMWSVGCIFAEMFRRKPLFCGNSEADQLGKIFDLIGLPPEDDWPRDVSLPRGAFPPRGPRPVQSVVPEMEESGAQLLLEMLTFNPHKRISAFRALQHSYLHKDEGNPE
Chain of CDK4 (P24385 whole entry partner): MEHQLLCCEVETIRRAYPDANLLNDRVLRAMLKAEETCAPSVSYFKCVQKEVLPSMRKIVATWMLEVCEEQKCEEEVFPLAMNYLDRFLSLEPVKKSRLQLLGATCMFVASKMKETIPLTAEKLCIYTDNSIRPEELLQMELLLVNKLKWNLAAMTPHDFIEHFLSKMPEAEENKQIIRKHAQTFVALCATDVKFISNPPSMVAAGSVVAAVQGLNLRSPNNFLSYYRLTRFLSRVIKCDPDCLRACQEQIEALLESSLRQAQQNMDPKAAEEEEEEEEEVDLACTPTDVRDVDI
Chain of CDK4 (Q16531 2-1140 limits assumed): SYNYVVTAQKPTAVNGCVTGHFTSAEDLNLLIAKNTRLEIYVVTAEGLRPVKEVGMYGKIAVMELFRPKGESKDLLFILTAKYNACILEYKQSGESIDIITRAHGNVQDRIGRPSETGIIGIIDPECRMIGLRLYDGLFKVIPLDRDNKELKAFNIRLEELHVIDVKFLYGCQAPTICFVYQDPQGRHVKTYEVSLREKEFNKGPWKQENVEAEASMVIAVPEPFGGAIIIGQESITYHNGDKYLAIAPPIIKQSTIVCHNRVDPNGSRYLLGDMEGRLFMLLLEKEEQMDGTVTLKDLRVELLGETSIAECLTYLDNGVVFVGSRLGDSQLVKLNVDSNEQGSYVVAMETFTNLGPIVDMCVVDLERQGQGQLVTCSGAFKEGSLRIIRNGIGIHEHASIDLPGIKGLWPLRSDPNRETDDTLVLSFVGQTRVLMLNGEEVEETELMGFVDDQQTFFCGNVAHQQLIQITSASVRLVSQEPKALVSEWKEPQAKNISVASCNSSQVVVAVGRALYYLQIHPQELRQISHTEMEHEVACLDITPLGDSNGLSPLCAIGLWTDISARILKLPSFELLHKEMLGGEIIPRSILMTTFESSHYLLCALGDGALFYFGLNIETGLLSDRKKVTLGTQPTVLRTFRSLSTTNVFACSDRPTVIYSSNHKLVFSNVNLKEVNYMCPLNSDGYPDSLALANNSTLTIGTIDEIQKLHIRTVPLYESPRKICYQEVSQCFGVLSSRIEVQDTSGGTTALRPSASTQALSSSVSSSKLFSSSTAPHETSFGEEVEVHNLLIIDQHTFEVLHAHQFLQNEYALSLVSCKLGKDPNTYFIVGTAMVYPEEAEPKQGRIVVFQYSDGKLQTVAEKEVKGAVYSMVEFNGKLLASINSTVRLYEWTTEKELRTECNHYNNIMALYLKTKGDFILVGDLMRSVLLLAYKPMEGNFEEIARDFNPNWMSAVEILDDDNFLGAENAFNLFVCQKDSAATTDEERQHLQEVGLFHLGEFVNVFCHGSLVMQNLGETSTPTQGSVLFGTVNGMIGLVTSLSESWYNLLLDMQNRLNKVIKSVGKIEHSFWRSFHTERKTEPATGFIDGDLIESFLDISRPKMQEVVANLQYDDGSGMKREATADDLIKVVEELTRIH

Consider `CC(=O)c1c(C)c2cnc(Nc3ccc(N4CCN(CC(=O)NCCCCCNc5nc(C(C)C)ccc5C(=O)Nc5ccc(N(C)C)nn5)CC4)cn3)nc2n(C2CCCC2)c1=O` [CPD-63, 2-((5-(2-(4-(6-((6-Acetyl-8-cyclopentyl-5-methyl-7-oxo-7,8-dihydropyrido[2,3-d]pyrimidin-2-yl)amino)pyridin-3-yl)piperazin-1-yl)acetamido)pentyl)amino)-N-(6-(dimethylamino)pyridazin-3-yl)-6-isopropylnicotinamide], for which the IC50 (in general, the midpoint of a concentration-inhibition curve) was ≤ 10 nM with Calu-1 cells, ≤ 50 nM with T47D cells and < 50 nM in the test on MCF7 cells. The inhibition (in general, the drop in the measured response relative to a control, in per cent) at 0.04 µM against CDK4 is > 80%. The inhibition at 0.2 µM against CDK4 is > 80%.
With `[2H]C([2H])([2H])Nc1ccc(C(=O)Nc2ccc(N(C)C)nn2)c(NCCCCCNC(=O)CN2CCN(c3ccc(Nc4ncc5c(C)c(C(C)=O)c(=O)n(C6CCCC6)c5n4)nc3)CC2)n1` [CPD-66, 2-((5-(2-(4-(6-((6-Acetyl-8-cyclopentyl-5-methyl-7-oxo-7,8-dihydropyrido[2,3-d]pyrimidin-2-yl)amino)pyridin-3-yl)piperazin-1-yl)acetamido)pentyl)amino)-N-(6-(dimethylamino)pyridazin-3-yl)-6-((methyl-d3)amino)nicotinamide], the values for the IC50 in the test on Calu-1 cells, in the test with T47D cells and in the test with MCF7 cells were ≤ 10 nM, 50 to 100 nM and > 100 nM, respectively. The compound further had an inhibition at 0.04 µM at CDK4 of 50 to 80%. In addition, the inhibition at 0.2 µM on CDK4 fell in the range of 50 to 80%.
Turning to `CNc1ccc(C(=O)Nc2ccc(N(C)C)nn2)c(NC[C@H]2CC[C@H](NC(=O)CN3CCN(c4ccc(Nc5ncc6c(C)c(C(C)=O)c(=O)n(C7CCCC7)c6n5)nc4)CC3)CC2)n1` [CPD-73], the half-maximal inhibitory concentration (IC50) is 10 to 50 nM with Calu-1 cells, 50 to 100 nM in the test on T47D cells and 50 to 100 nM with MCF7 cells. At CDK4, this compound yielded an inhibition at 0.04 µM of 50 to 80%. The inhibition at 0.2 µM against CDK4 was 50 to 80%.
Take `CNc1ccc(C(=O)Nc2ccc(N(C)C)nn2)c(NC2CC(CNC(=O)CN3CCN(c4ccc(Nc5ncc6c(C)c(C(C)=O)c(=O)n(C7CCCC7)c6n5)nc4)CC3)C2)n1` (stereo not drawn) [CPD-79, 2-((3-((2-(4-(6-((6-Acetyl-8-cyclopentyl-5-methyl-7-oxo-7,8-dihydropyrido[2,3-d]pyrimidin-2-yl)amino)pyridin-3-yl)piperazin-1-yl)acetamido)methyl)cyclobutyl)amino)-N-(6-(dimethylamino)pyridazin-3-yl)-6-(methylamino)nicotinamide]: the half-maximal inhibitory concentration (IC50) was ≤ 10 nM in the test with Calu-1 cells, ≤ 50 nM with T47D cells and < 50 nM with MCF7 cells. For the same compound, the inhibition at 0.04 µM against CDK4 is 50 to 80%. At CDK4, this compound had an inhibition at 0.2 µM of 50 to 80%.
Turning to `CNc1ccc(C(=O)Nc2ccc(N(C)C)nn2)c(NC2CC3(C2)CC(OCC(=O)N2CCN(c4ccc(Nc5ncc6c(C)c(C(C)=O)c(=O)n(C7CCCC7)c6n5)nc4)CC2)C3)n1` (stereo not drawn) [CPD-84, 2-((6-(2-(4-(6-((6-Acetyl-8-cyclopentyl-5-methyl-7-oxo-7,8-dihydropyrido[2,3-d]pyrimidin-2-yl)amino)pyridin-3-yl)piperazin-1-yl)-2-oxoethoxy)spiro[3.3]heptan-2-yl)amino)-N-(6-(dimethylamino)pyridazin-3-yl)-6-(methylamino)nicotinamide], the IC50 in the test with Calu-1 cells is 10 to 50 nM; in the test on T47D cells, 50 to 100 nM; in the test with MCF7 cells, > 100 nM. In addition, the inhibition at 0.04 µM against CDK4 is < 30%. On CDK4, the inhibition at 0.2 µM is < 30%.
On to `CNc1ccc(C(=O)Nc2ccc(N(C)C)nn2)c(NC2CC(CC(=O)NCCN3CCN(c4ccc(Nc5ncc6c(C)c(C(C)=O)c(=O)n(C7CCCC7)c6n5)nc4)CC3)C2)n1` (stereo not drawn) [CPD-101, 2-((3-(2-((2-(4-(6-((6-Acetyl-8-cyclopentyl-5-methyl-7-oxo-7,8-dihydropyrido[2,3-d]pyrimidin-2-yl)amino)pyridin-3-yl)piperazin-1-yl)ethyl)amino)-2-oxoethyl)cyclobutyl)amino)-N-(6-(dimethylamino)pyridazin-3-yl)-6-(methylamino)nicotinamide], for which the IC50 with Calu-1 cells is ≤ 10 nM; with T47D cells, 50 to 100 nM; with MCF7 cells, < 50 nM. The compound further showed an inhibition at 0.04 µM against CDK4 of 50 to 80%. Further, at CDK4, the inhibition at 0.2 µM was > 80%.

Source of the values: patent publication US20260297081A1, “COMPOUNDS AND METHODS OF TREATING CANCERS” (Cullgen Inc., priority 2023, published 2026).
